Holding throughout (type): ADME
Holding throughout (conditions): 0.5 h

Series [1] addresses T1, Cytochrome P450 2C9 (Homo sapiens, UniProt P11712). The series can be described thus: Drug metabolism in supersomes expressing human recombinant CYP2C9 assessed as enzyme-mediated clozapine-N-oxide metabolite formation at 100 uM after 30 mins measured per nmol of P450 by HPLC analysis.
For series [2], the target named is T2, Cytochrome P450 1A2 (Homo sapiens, UniProt P05177).
T2 sequence (P05177 whole entry): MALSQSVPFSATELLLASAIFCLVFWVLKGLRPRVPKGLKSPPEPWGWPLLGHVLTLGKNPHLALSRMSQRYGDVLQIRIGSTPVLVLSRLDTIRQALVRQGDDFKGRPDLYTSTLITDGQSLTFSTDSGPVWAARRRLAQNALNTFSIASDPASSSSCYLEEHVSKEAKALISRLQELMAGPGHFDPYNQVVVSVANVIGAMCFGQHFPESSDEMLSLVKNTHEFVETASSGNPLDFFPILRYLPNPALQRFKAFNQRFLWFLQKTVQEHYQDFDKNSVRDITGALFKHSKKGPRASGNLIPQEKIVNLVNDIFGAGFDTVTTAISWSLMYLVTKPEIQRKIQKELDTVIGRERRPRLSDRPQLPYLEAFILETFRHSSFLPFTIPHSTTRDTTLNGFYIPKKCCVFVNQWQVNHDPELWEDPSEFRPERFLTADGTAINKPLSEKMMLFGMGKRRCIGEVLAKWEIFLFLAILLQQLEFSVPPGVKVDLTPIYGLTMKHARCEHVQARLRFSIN
The series can be described thus: Drug metabolism in supersomes expressing human recombinant CYP1A2 assessed as enzyme-mediated clozapine-N-oxide metabolite formation at 100 uM after 30 mins measured per nmol of P450 by HPLC analysis.

The target of series [3] is T3, Cytochrome P450 2C18 (Homo sapiens, UniProt P33260).
T3 sequence (P33260 whole entry): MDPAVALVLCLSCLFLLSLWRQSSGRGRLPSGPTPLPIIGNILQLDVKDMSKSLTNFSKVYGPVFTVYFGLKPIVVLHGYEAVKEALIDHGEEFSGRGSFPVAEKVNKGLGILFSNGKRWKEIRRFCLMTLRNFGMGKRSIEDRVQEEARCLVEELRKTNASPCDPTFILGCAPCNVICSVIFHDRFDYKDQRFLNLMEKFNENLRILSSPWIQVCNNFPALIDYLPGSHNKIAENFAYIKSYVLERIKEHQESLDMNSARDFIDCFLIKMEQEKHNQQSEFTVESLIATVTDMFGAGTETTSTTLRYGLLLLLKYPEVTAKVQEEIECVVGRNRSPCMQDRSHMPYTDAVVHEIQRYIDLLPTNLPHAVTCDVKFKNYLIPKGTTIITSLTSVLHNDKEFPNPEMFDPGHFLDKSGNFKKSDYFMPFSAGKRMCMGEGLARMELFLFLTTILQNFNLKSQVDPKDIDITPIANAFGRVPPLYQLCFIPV
The series can be described thus: Drug metabolism in supersomes expressing human recombinant CYP2C18 assessed as enzyme-mediated clozapine-N-oxide metabolite formation at 100 uM after 30 mins measured per nmol of P450 by HPLC analysis.

In series [4] the target is T1, Cytochrome P450 2C9. Kind of series: Drug metabolism in supersomes expressing human recombinant CYP2C9 assessed as enzyme-mediated cyanide adduct formation at 100 uM after 30 mins measured per nmol of P450 by HPLC analysis in presence of KCN.
The target of series [5] is T3, Cytochrome P450 2C18. Kind of series: Drug metabolism in supersomes expressing human recombinant CYP2C18 assessed as enzyme-mediated N-desmethylclozapine metabolite formation at 10 uM after 30 mins measured per nmol of P450 by HPLC analysis.
Series [6] concerns the target T2, Cytochrome P450 1A2. Kind of series: Drug metabolism in supersomes expressing human recombinant CYP1A2 assessed as enzyme-mediated N-desmethylclozapine metabolite formation at 10 uM after 30 mins measured per nmol of P450 by HPLC analysis.
For series [7], the target named is T3, Cytochrome P450 2C18. Kind of series: Drug metabolism in supersomes expressing human recombinant CYP2C18 assessed as enzyme-mediated clozapine-N-oxide metabolite formation at 10 uM after 30 mins measured per nmol of P450 by HPLC analysis.
The target of the next series is T4, Cytochrome P450 1B1 (Homo sapiens, UniProt Q16678).
T4 sequence (Q16678 whole entry): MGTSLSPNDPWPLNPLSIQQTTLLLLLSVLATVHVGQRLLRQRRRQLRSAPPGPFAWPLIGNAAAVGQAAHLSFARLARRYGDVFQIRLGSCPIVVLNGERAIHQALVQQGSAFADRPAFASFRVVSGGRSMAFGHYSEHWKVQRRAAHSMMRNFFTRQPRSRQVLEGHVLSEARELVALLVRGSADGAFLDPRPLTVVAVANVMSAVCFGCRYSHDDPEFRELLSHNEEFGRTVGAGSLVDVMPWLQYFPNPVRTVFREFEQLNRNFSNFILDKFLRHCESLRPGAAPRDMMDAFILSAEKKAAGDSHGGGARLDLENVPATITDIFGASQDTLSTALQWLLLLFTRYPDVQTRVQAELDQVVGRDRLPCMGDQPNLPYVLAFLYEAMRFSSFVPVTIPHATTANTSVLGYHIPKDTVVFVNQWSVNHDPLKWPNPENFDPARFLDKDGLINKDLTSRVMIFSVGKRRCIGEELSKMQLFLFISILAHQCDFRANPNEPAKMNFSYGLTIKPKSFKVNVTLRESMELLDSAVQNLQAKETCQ
The series can be described thus: Drug metabolism in supersomes expressing human recombinant CYP1B1 assessed as enzyme-mediated clozapine-N-oxide metabolite formation at 10 uM after 30 mins measured per nmol of P450 by HPLC analysis.

Another series has as its target Cytochrome P450 2D6 (Homo sapiens, UniProt P10635). The series can be described thus: Drug metabolism in supersomes expressing human recombinant CYP2D6 assessed as enzyme-mediated N-desmethylclozapine metabolite formation at 10 uM after 30 mins measured per nmol of P450 by HPLC analysis.
For another series, the target named is Cytochrome P450 2C19 (Homo sapiens, UniProt P33261). The series can be described thus: Drug metabolism in supersomes expressing human recombinant CYP2C19 assessed as enzyme-mediated N-desmethylclozapine metabolite formation at 10 uM after 30 mins measured per nmol of P450 by HPLC analysis.
Sequence of Cytochrome P450 2C19 (P33261 whole entry): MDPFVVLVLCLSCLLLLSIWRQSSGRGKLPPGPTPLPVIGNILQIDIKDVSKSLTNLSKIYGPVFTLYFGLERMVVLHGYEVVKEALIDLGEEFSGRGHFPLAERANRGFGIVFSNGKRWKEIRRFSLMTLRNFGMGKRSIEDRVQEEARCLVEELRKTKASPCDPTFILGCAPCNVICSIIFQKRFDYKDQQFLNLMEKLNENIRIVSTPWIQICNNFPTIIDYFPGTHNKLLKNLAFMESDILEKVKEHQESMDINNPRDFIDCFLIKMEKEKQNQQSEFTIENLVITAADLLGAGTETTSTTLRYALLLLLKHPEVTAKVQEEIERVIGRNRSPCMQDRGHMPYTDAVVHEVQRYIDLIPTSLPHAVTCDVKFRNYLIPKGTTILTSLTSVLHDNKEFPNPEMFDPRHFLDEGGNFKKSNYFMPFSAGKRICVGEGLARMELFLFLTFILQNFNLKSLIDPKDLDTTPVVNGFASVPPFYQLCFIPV
In the next series the target is T5, Cytochrome P450 2C8 (Homo sapiens, UniProt P10632).
T5 sequence (P10632 whole entry): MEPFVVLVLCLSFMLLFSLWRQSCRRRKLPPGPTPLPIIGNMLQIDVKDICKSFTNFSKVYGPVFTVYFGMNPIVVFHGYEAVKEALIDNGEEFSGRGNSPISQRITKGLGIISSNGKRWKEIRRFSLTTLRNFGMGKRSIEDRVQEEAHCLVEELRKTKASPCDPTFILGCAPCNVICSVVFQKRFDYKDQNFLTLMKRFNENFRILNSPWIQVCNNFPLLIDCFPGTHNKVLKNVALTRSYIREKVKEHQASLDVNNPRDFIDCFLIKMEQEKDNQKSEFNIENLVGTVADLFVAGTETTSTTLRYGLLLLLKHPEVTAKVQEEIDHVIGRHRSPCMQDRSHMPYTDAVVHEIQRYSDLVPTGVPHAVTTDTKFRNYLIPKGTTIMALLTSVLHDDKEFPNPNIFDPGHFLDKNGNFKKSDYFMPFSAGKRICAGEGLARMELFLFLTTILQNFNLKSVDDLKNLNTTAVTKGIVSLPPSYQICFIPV
The series can be described thus: Drug metabolism in supersomes expressing human recombinant CYP2C8 assessed as enzyme-mediated N-desmethylclozapine metabolite formation at 100 uM after 30 mins measured per nmol of P450 by HPLC analysis.

T1 sequence (P11712 whole entry): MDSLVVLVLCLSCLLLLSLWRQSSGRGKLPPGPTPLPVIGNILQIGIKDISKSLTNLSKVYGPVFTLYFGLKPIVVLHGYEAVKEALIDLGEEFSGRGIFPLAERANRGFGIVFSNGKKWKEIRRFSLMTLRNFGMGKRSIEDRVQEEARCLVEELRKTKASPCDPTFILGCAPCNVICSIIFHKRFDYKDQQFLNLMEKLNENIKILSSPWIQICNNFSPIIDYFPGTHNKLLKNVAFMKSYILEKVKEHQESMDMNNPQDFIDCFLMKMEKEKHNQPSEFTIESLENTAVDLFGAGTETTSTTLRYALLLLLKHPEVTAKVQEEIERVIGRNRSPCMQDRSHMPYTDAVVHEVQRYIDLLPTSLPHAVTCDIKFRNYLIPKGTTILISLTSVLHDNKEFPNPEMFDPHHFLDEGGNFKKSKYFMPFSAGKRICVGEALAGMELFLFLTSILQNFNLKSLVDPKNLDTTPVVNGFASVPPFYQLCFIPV
Sequence of Cytochrome P450 2D6 (P10635 whole entry): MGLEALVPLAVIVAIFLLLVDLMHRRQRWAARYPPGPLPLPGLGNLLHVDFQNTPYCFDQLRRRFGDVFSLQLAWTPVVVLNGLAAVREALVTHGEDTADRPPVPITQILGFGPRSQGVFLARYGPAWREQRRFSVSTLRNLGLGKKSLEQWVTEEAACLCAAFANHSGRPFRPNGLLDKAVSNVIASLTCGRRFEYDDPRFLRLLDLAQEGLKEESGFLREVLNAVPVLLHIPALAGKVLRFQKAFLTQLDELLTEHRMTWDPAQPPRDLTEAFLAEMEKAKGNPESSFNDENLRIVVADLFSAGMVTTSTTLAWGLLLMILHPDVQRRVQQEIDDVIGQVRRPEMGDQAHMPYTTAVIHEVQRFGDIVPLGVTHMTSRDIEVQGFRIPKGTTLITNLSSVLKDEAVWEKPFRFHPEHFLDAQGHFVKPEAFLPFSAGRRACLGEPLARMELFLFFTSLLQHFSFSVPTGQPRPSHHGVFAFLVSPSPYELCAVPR

As for `CN1CCN(C2=Nc3cc(Cl)ccc3Nc3ccccc32)CC1` [CLOZAPINE], the Drug metabolism is 0.057 nmol/min at Cytochrome P450 2C9 [1]; 3.7 nmol/min at Cytochrome P450 1A2 [2]; 0.065 nmol/min at Cytochrome P450 2C18 [3]; 0.01 nmol/min at Cytochrome P450 2C9 [4]; 4.08 nmol/min/nmol P450 at Cytochrome P450 2C18 [5]; 1.12 nmol/min at Cytochrome P450 1A2 [6]. In addition, the Drug metabolism at Cytochrome P450 2C18 [7] is 0.025 nmol/min/nmol P450; on Cytochrome P450 1B1 it was 0.84 nmol/min; at Cytochrome P450 2D6, 8.43 nmol/min/nmol P450; at Cytochrome P450 2C19, 6.62 nmol/min/nmol P450; at Cytochrome P450 2C8, 0.89 nmol/min.

The values above are taken from ChEMBL document CHEMBL3525934 (Drug Metab Dispos, 2013).
